# Assay results as given in patent publication US10676471B2, “Cycloalkyl-linked diheterocycle derivatives” (Pfizer Inc., priority 2014, dated 2020).
# pIC50: −log10 of the molar value.
# System: BT20 Cell
# Test: Cancer Cell Lysate Total L-Glutamate Assay
# Format: cell-based
# Settings: Homo sapiens, BT-20, 2 h, total L-glutamate in cell lysate, BT20 cells, 2 hour incubation with test compound
# Method: Cancer Cell Lysate Total L-Glutamate Assay
# Cancer cell lines (BT20, HCT116, SKOV3, HCC70, SUM149, MDA-MB-231, etc.) were plated in 96 well plates and were used for the total L-glutamate assay when the monolayer was ca. 80% confluent. The media was changed and fresh media containing L-glutamine was added to the 96 well plates, just before incubation of the cells with test compound. The test compound was diluted in 100% DMSO using a two-fold or three-fold serial dilution. Small volumes of the dilutions of test compound were added to the 96 well plates so the final DMSO concentration was 0.5% v/v in the cell culture medium. The cells were incubated at 37° C., 5% CO2, and 95% air for 2 hours. Following the 2 hour incubation, the cells were washed with water 2 times. After the last water wash, 100 μL of 50 mM Tris-HCl pH 7.4 and 0.01% Tween-20 was added to each well and the plate was frozen at −80° C. The 96 well plate was frozen and thawed a total of 3 times and then sonicated for 5 min at 4° C. in a bath sonicator. Following sonication, the 96 well plate was centrifuged for 5 min at 1000 rpm and 10 μL of the supernatant was transferred to a 384 well assay plate.
# Total L-glutamate (L-glutamic acid) in the cell lysis supernatant was detected using glutamate oxidase, horseradish peroxidase and Amplex Red reagent (10-acetyl-3,7-dihydroxy phenoxazine, Invitrogen # A22177). In this assay, L-glutamate was oxidized by glutamate oxidase to produce alpha-ketoglutarate (2-oxopentane dioic acid), NH3 and H202. The H2O2 (hydrogen peroxide) was used by horseradish peroxidase (HRP) to oxidize the Amplex Red Reagent to resorufin which is a fluorescent molecule. When resorufin is excited with light with a wavelength 530-560 nm, it emits light at approximately 585 nm. For detection of total L-glutamate in 10 μL of lysate, 15 μL of an enzyme mixture was added to each well of the 384 well assay plate. The enzyme mixture consisted of 50 mM Tris-HCl pH 7.4, 0.01% Tween-20, 50 μM Amplex Red reagent (final concentration), 0.04 U/mL L-glutamate oxidase (final concentration), and 0.125 U/mL HRP (final concentration). The 384 well assay plate was incubated at room temperature for 5 min and then the fluorescence intensity of each well was measured at 585 nm using a 530-560 nm excitation wavelength in a plate based fluorimeter such as an LJL Analyst or a Tecan Infinite plate reader. Standard curves were constructed for this assay using dilutions of a L-glutamate standard. IC50 were calculated by plotting the relative fluorescent units vs log of the inhibitor concentration and fitting the data to the four parameter logistic equation.
# Reference: Chapman J. and Zhou M. (1999) Microplate-based fluorometric methods for the enzymatic determination of I-glutamate: application in measuring I-glutamate in food samples. Analytica Chim Acta 402:47-52.
row,pIC50,Compound
1,8.07,"CC(C)C(=O)Nc1nnc(C[C@H]2C[C@@H](c3nnc(NC(=O)Cc4ccccn4)s3)C2)s1 (single isomer, unassigned) [Example 104, 2-methyl-N-{5-[(cis-3-{5-[(pyridin-2-ylacetyl)amino]-1,3,4-thiadiazol-2-yl}cyclobutyl)methyl]-1,3,4-thiadiazol-2-yl}propanamide]"
2,10.00,"O=C(Cc1ccccc1)Nc1ccc(C[C@@H]2CC[C@H](c3nnc(NC(=O)Cc4ccccn4)s3)C2)nn1 (single isomer, unassigned) [Example 82, 2-phenyl-N-(6-{[(cis)-3-{5-[(pyridin-2-ylacetyl)amino]-1,3,4-thiadiazol-2-yl}cyclopentyl]methyl}pyridazin-3-yl)acetamide]"
3,8.85,"O=C(Cc1ccccn1)Nc1ccc(C[C@@H]2CC[C@H](c3nnc(NC(=O)c4ccccn4)s3)C2)nn1 (single isomer, unassigned) [Example 117, N-{5-[(cis)-3-({6-[(pyridin-2-ylacetyl)amino]pyridazin-3-yl}methyl)cyclopentyl]-1,3,4-thiadiazol-2-yl}pyridine-2-carboxamide]"
4,9.70,"O=C(Cc1ccccn1)Nc1ccc(CC2CCC(c3nnc(NC(=O)Cc4ccccn4)s3)C2)nn1 (racemic) [Example 70, (rac)-2-(pyridin-2-yl)-N-{5-[(cis)-3-({6-[(pyridin-2-ylacetyl)amino]pyridazin-3-yl}methyl)cyclopentyl]-1,3,4-thiadiazol-2-yl}acetamide]"
5,6.78,"CC(C)(C)C(=O)Nc1nnc(C[C@@H]2CC[C@H](c3nnc(NC(=O)C(C)(C)C)s3)C2)s1 (single isomer, unassigned) [Example 29, N-(5-{[(cis)-3-{5-[(2,2-dimethylpropanoyl)amino]-1,3,4-thiadiazol-2-yl}cyclopentyl]methyl}-1,3,4-thiadiazol-2-yl)-2,2-dimethylpropanamide]"
6,8.85,"CC(C)C(=O)Nc1nnc([C@H]2CC3(C[C@H](c4nnc(NC(=O)C(C)C)s4)C3)C2)s1 (stereo partly drawn) [Example 95, N,N′-(spiro[3.3]heptane-2,6-diyldi-1,3,4-thiadiazole-5,2-diyl)bis(2-methylpropanamide)]"
7,6.29,"CC(=O)Nc1nnc(C2CCC(Cc3nnc(NC(=O)Cc4cnccn4)s3)C2)s1 (racemic) [Example 47, (rac)-N-[5-({(cis)-3-[5-(acetylamino)-1,3,4-thiadiazol-2-yl]cyclopentyl}methyl)-1,3,4-thiadiazol-2-yl]-2-(pyrazin-2-yl)acetamide]"
8,8.26,"CC(=O)Nc1nnc(C[C@@H]2CC[C@H](c3nnc(NC(=O)Cc4ccccc4)s3)C2)s1 (single isomer, unassigned) [Example 44, N-{5-[(cis)-3-{[5-(acetylamino)-1,3,4-thiadiazol-2-yl]methyl}cyclopentyl]-1,3,4-thiadiazol-2-yl}-2-phenylacetamide]"
9,7.41,"CC(=O)Nc1nnc(C[C@H]2C[C@@H](c3nnc(NC(C)=O)s3)C2)s1 (single isomer, unassigned) [Example 62, N-[5-({cis-3-[5-(acetylamino)-1,3,4-thiadiazol-2-yl]cyclobutyl}methyl)-1,3,4-thiadiazol-2-yl]acetamide]"
10,6.19,"C[C@H](C(=O)Nc1nnc([C@@H]2CC[C@H](Cc3nnc(NC(=O)[C@H](C)c4cccnc4)s3)C2)s1)c1cccnc1 (single isomer, unassigned) [Example 31, 2-(pyridin-3-yl)-N-(5-{[(cis)-3-(5-{[2-(pyridin-3-yl)propanoyl]amino}-1,3,4-thiadiazol-2-yl)cyclopentyl]methyl}-1,3,4-thiadiazol-2-yl)propanamide]"
11,8.77,"O=C(Cc1ccccn1)Nc1nnc(C[C@@H]2CC[C@H](c3nnc(Nc4ccccn4)s3)C2)s1 (single isomer, unassigned) [Example 133, 2-(pyridin-2-yl)-N-[5-({(cis)-3-[5-(pyridin-2-ylamino)-1,3,4-thiadiazol-2-yl]cyclopentyl}methyl)-1,3,4-thiadiazol-2-yl]acetamide]"
12,8.47,"O=C(Cc1ccccn1)Nc1ccc(C[C@H]2CC[C@@H](c3nnc(Nc4ccccn4)s3)C2)nn1 (single isomer, unassigned) [Example 74, 2-(pyridin-2-yl)-N-[6-({(cis)-3-[5-(pyridin-2-ylamino)-1,3,4-thiadiazol-2-yl]cyclopentyl}methyl)pyridazin-3-yl]acetamide]"
13,6.86,"CC(=O)Nc1nnc(C[C@@H]2CC[C@H](c3nnc(NC(=O)Cc4ccncn4)s3)C2)s1 (single isomer, unassigned) [Example 20]"
14,8.82,"CCC(=O)Nc1ccc(C[C@H]2CC[C@@H](c3nnc(NC(=O)Cc4ccn(C)n4)s3)C2)nn1 (single isomer, unassigned) [Example 91, N-(6-{[(cis)-3-(5-{[(1-methyl-1H-pyrazol-3-yl)acetyl]amino}-1,3,4-thiadiazol-2-yl)cyclopentyl]methyl}pyridazin-3-yl)propanamide]"
15,7.19,"CC(=O)Nc1nnc([C@H]2CC[C@@H](Cc3nnc(NC(=O)Cc4cncnc4)s3)C2)s1 (single isomer, unassigned) [Example 51, N-[5-({(cis)-3-[5-(acetylamino)-1,3,4-thiadiazol-2-yl]cyclopentyl}methyl)-1,3,4-thiadiazol-2-yl]-2-(pyrimidin-5-yl)acetamide]"
16,5.11,"CC(=O)Nc1nnc(C[C@H]2CC[C@@H](c3nnc(NC(=O)Cc4cncnc4)s3)C2)s1 (single isomer, unassigned) [Example 59, N-{5-[(cis)-3-{[5-(acetylamino)-1,3,4-thiadiazol-2-yl]methyl}cyclopentyl]-1,3,4-thiadiazol-2-yl}-2-(pyrimidin-5-yl)acetamide]"
17,5.74,"Nc1nnc(CC2CC[C@@H](c3nnc(NC(=O)Cc4ccccc4)s3)C2)s1 (single isomer, unassigned) [Example 65, N-(5-{(cis)-3-[(5-amino-1,3,4-thiadiazol-2-yl)methyl]cyclopentyl}-1,3,4-thiadiazol-2-yl)-2-phenylacetamide]"
18,6.42,"O=C(Cc1ccccn1)Nc1nnc(C2CCC(c3nnc(NC(=O)Cc4ccccn4)s3)CC2)s1 (racemic) [Example 140, N,N′-(cyclohexane-1,4-diyldi-1,3,4-thiadiazole-5,2-diyl)bis[2-(pyridin-2-yl)acetamide]]"
19,9.52,"Cc1ccc(CC(=O)Nc2nnc(C[C@H]3C[C@@H](c4nnc(NC(=O)Cc5ccc(C)cn5)s4)C3)s2)nc1 (single isomer, unassigned) [Example 108, 2-(5-methylpyridin-2-yl)-N-(5-{[cis-3-(5-{[(5-methylpyridin-2-yl)acetyl]amino}-1,3,4-thiadiazol-2-yl)cyclobutyl]methyl}-1,3,4-thiadiazol-2-yl)acetamide]"
20,8.74,"O=C(Cc1ccccn1)Nc1ccc(C[C@@H]2CC[C@H](c3nnc(NC(=O)C[C@H]4CCCO4)s3)C2)nn1 (single isomer, unassigned) [Example 130]"
21,8.17,"CC(=O)Nc1nnc([C@H]2CC[C@@H](Cc3nnc(NC(=O)Cc4ccc(C)nc4)s3)C2)s1 (single isomer, unassigned) [Example 53, N-[5-({(cis)-3-[5-(acetylamino)-1,3,4-thiadiazol-2-yl]cyclopentyl}methyl)-1,3,4-thiadiazol-2-yl]-2-(6-methylpyridin-3-yl)acetamide]"
22,< 4.30,"CC(=O)Nc1nnc(C2CC[C@H](Cc3nnc(NC(=O)c4ccccc4)s3)C2)s1 (single isomer, unassigned) [Example 12, N-[5-({(cis)-3-[5-(acetylamino)-1,3,4-thiadiazol-2-yl]cyclopentyl}methyl)-1,3,4-thiadiazol-2-yl]benzamide]"

# Same assay, conditions: total L-glutamate in cell lysate, BT20 cells, 2 hour incubation with test compound
row,pIC50,Compound
1,9.30,"Cn1ccc(CC(=O)Nc2nnc([C@H]3CC4(C[C@H](c5nnc(NC(=O)Cc6ccn(C)n6)s5)C4)C3)s2)n1 (stereo partly drawn) [Example 98, N,N′-(spiro[3.3]heptane-2,6-diyldi-1,3,4-thiadiazole-5,2-diyl)bis[2-(1-methyl-1H-pyrazol-3-yl)acetamide]]"
2,8.57,"Cn1ccc(CC(=O)Nc2nnc([C@H]3CC4(C[C@H](c5nnc(NC(=O)Cc6ccn(C)n6)s5)C4)C3)s2)n1 (stereo partly drawn) [Example 97, N,N′-(spiro[3.3]heptane-2,6-diyldi-1,3,4-thiadiazole-5,2-diyl)bis[2-(1-methyl-1H-pyrazol-3-yl)acetamide]]"
